One data set concerns Toxoplasma gondii. Kind of data set: Antimicrobial activity against Toxoplasma gondii assessed as inhibition of growth measured after 5 days by beta-galactosidase assay. The format is functional. To be noted: 120 h, read-out: ID50 (the source's name).
Data set [1] in a line: Therapeutic index, ratio of TD50 for human foreskin fibroblast cells to ID 50 for Toxoplasma gondii. It counts as cell-based. To be noted: read-out: TI.
The nature of data set [2]: Cytotoxicity against human foreskin fibroblast cells by colorimetric method. The format is cell-based. As to conditions: human foreskin fibroblast (HFF) cells, read-out: TD50 (the source's name).

Each structure is given as a SMILES string.

As to `O=c1c2ccccc2nc2n1-c1ccc(Br)cc1/C2=N/O`, the IC50 with Toxoplasma gondii turned out to be 0.085 µM. Besides, in data set [1], the selectivity ratio turned out to be 590. For the same compound, the CC50 in data set [2] turned out to be 50 µM.

With `CC(=O)O/N=C1\c2ccccc2-n2c1nc1ccccc1c2=O`, in the data set with Toxoplasma gondii, the IC50 is 1.1 µM. The selectivity ratio in data set [1] is 32. The CC50 in data set [2] is 35 µM.

Take `O=CO/N=C1\c2ccccc2-n2c1nc1ccccc1c2=O`: the IC50 in the data set on Toxoplasma gondii stood at 0.62 µM. For the same compound, the selectivity ratio in data set [1] stood at 35. Moreover, the CC50 in data set [2] was determined as 22 µM.

As to `N/N=C1/c2ccccc2-n2c1nc1ccccc1c2=O`, the IC50 in the data set with Toxoplasma gondii stood at 2 µM. For the same compound, the selectivity ratio in data set [1] came out at 16. Further, the CC50 in data set [2] amounted to 32 µM.

Take `N/N=C1/c2cc(Br)ccc2-n2c1nc1ccccc1c2=O`: in the data set on Toxoplasma gondii, the IC50 turned out to be 0.31 µM. For the same compound, the selectivity ratio in data set [1] came to 250. Further, in data set [2], the CC50 was 79 µM.

Regarding `CC(=O)N/N=C1/c2ccccc2-n2c1nc1ccccc1c2=O`, in the data set on Toxoplasma gondii, the IC50 came to 12 µM. Further, in data set [1], the selectivity ratio was greater than 8.3. In addition, the CC50 in data set [2] was greater than 100 µM.

With `O=C(N/N=C1/c2ccccc2-n2c1nc1ccccc1c2=O)C(F)(F)F`, the IC50 in the data set with Toxoplasma gondii stood at 1.6 µM. Further, the selectivity ratio in data set [1] was greater than 63. The CC50 in data set [2] is greater than 100 µM.

Regarding `CC1(O)c2cc(Br)ccc2-n2c1nc1ccccc1c2=O` (configuration not stated), in the data set with Toxoplasma gondii, the IC50 is 7 µM. For the same compound, the selectivity ratio in data set [1] was greater than 14. Further, the CC50 in data set [2] is greater than 100 µM.

Consider `O=C1c2ccccc2N[C@H]2[C@H](O)c3ccccc3N12`, for which the IC50 with Toxoplasma gondii is 0.24 µM. Moreover, in data set [1], the selectivity ratio was 50. Besides, in data set [2], the CC50 was found to be 12 µM.

As for `O=C1c2ccccc2N[C@H]2[C@H](O)c3cc(Br)ccc3N12`, the IC50 in the data set on Toxoplasma gondii stood at 0.002 µM. In addition, the selectivity ratio in data set [1] is greater than 50000. Besides, the CC50 in data set [2] was greater than 100 µM.

Take `CC(=O)O[C@@H]1c2ccccc2N2C(=O)c3ccccc3N[C@@H]12`: in the data set with Toxoplasma gondii, the IC50 turned out to be 1 µM. Moreover, the selectivity ratio in data set [1] was found to be 40. Besides, the CC50 in data set [2] stood at 40 µM.

For `O=Nc1c2ccccc2n2c(O)c3ccccc3nc12`, the IC50 in the data set on Toxoplasma gondii came to 0.8 µM. For the same compound, the selectivity ratio in data set [1] is greater than 130. Besides, the CC50 in data set [2] was greater than 100 µM.

For the compound `O=C1c2cc(Br)ccc2-n2c1nc1ccccc1c2=O`, the IC50 in the data set on Toxoplasma gondii stood at 0.00323 µM. In addition, the selectivity ratio in data set [1] was greater than 33000. In addition, the CC50 in data set [2] is greater than 100 µM.

As to `CC1(O)c2ccccc2-n2c1nc1ccccc1c2=O` (configuration not stated), the IC50 in the data set on Toxoplasma gondii stood at 8.7 µM. Further, the selectivity ratio in data set [1] is greater than 11. In addition, the CC50 in data set [2] was greater than 100 µM.

With `CON=C1c2ccccc2-n2c1nc1ccccc1c2=O` (mixture of isomers), the IC50 with Toxoplasma gondii is 1.3 µM. In data set [1], the selectivity ratio is greater than 77. In addition, in data set [2], the CC50 was greater than 100 µM.

`CON=C1c2cc(Br)ccc2-n2c1nc1ccccc1c2=O` (single isomer, unassigned): in the data set with Toxoplasma gondii, the IC50 is 0.083 µM. Also, the selectivity ratio in data set [1] is greater than 1200. Besides, the CC50 in data set [2] was greater than 100 µM.

As to `CC(=O)CC1(O)c2ccccc2-n2c1nc1ccccc1c2=O` (configuration not stated) [PHAITANTHRINS A], in the data set with Toxoplasma gondii, the IC50 is 0.23 µM. Besides, the selectivity ratio in data set [1] amounted to 49. In addition, in data set [2], the CC50 worked out at 11 µM.

Take `COc1cc(Cc2cnc(N)nc2N)cc(OC)c1OC` [TRIMETHOPRIM]: in the data set with Toxoplasma gondii, the IC50 worked out at 15 µM. Also, the selectivity ratio in data set [1] is greater than 3. Besides, the CC50 in data set [2] is greater than 100 µM.

With `O=C1c2ccccc2-n2c1nc1ccccc1c2=O` [TRYPTANTHRIN], in the data set with Toxoplasma gondii, the IC50 turned out to be 0.14 µM. Moreover, the selectivity ratio in data set [1] turned out to be 45. The CC50 in data set [2] worked out at 6.4 µM.
